Results published in EP2613758B1, “MACROEMULSIONS WITH IMPROVED DEODORANT EFFICACY” (Beiersdorf AG, priority 2010, dated 2012).

Legend:
S. epidermidis = assay: Suspension test (germ count reduction by the formulation); assay type: cell-based; settings: active alone; Ethylhexylglycerin 0,5% in Makroemulsion ohne Octenidine (Abbildung 4)
Protocol: Die Wirksamkeit wurde mittels der Freisetzung von Octenidine aus Makro- bzw. Mikroemulsionen untersucht, wie es beispielhaft in Abbildung 3 und 4 dargestellt ist. Ebenso sind Untersuchungen durchgeführt worden für W/O- Aerosol-Zubereitungen einmal mit und einmal ohne Octenidine, die zu gleichen Ergebnissen geführt haben. In den dargestellten Suspensionstests wurden zu 500µL einer Bakteriensuspension (S. epidermidis) 250 mg der zu testenden Formulierung gegeben (bei der Positivkontrolle nur 250 mg des Bakterienmediums). Diese Mischungen werden mit Medium auf 1000µL aufgefüllt. Die Suspension enthält dann ca. 1*10^6 KBE/mL (KBE: koloniebildende Einheiten). Die Ansätze werden bei 37°C unter Rotation für drei Stunden inkubiert. Nach 0, 20, 60 und 180 min werden Proben genommen, verdünnt und auf Agarplatten ausplattiert. Diese werden 24h bei 37°C zur Anzucht der verbleibenden Keime inkubiert. Gute und in vivo wirksame Deodorant-Formulierungen reduzieren die Keimzahl bereits nach 20 Minuten auf Nachweisgrenze von 100 KBE/mL. Formulierungen mit schlechterer Keimzahl-Reduktion zeigen in vivo keine ausreichende Deoleistung.

Bakterien = assay: Investigations of efficacy of amphiphilic actives from micro- and macroemulsions (method not specified)

SMILES | Wirksamkeit im Suspensionstest (Keimzahl-Reduktion) (S. epidermidis) | Wirksamkeit (Bakterien; aus Makroemulsionen) | Wirksamkeit (Bakterien; in einer Mikroemulsion)
CCCCC(CC)COCC(O)CO (centres unmarked) [Ethylhexylglycerin, 1-(2-Ethylhexyl)glycerinether] | nicht wirksam | – | –
CCCCCCCCN=c1ccn(CCCCCCCCCCn2ccc(=NCCCCCCCC)cc2)cc1.Cl.Cl [Octenidine HCl, N, N'-(1,10-decanediyldi-1[4H]-pyridinyl-4-ylidene)-bis-(octanamine) dihydrochloride] | gewünschte Wirksamkeit | zeigen eine Wirksamkeit | –
CC(C)(C)CC(C)(C)c1ccc(OCCOCC[N+](C)(C)Cc2ccccc2)cc1 [Benzethonium chloride] | – | zeigen eine Wirksamkeit | unwirksam
